Assay results from ChEMBL document CHEMBL3885881, “DrugMatrix”.

Species: Rattus norvegicus
Experiment: DrugMatrix - Regimen: Daily Repeat
Assay type: toxicity, organism-based, Sprague-Dawley
Parameters: regimen Daily Repeat, gender Male, age 6-8 weeks
Conditions: in vivo, po, route oral GAVAGE, vehicle .5 % CMC; for ABSOLUTE BASOPHIL / ABSOLUTE EOSINOPHIL / ABSOLUTE LYMPHOCYTE / ABSOLUTE MONOCYTE / ABSOLUTE SEGMENTED NEUTROPHIL / BASOPHIL / EOSINOPHIL / ERYTHROCYTE COUNT / HEMATOCRIT / HEMOGLOBIN / LEUKOCYTE COUNT / LYMPHOCYTE / MEAN CORPUSCULAR HEMOGLOBIN / MEAN CORPUSCULAR HEMOGLOBIN CONCENTRATION / MEAN CORPUSCULAR VOLUME / MONOCYTE / NEUTROPHIL / NUCLEATED RED BLOOD CELLS / PLATELET COUNT: tissue Blood; for ALANINE AMINOTRANSFERASE / ALBUMIN / ALKALINE PHOSPHATASE / ASPARTATE AMINOTRANSFERASE / BLOOD UREA NITROGEN / CARBON DIOXIDE / CHLORIDE / CHOLESTEROL / CREATINE PHOSPHOKINASE / CREATININE / GLUCOSE / LACTATE DEHYDROGENASE / LIPASE / PHOSPHORUS / POTASSIUM / SODIUM / TOTAL BILIRUBIN / TOTAL PROTEIN / URIC ACID: tissue Plasma
[1] = 0 mg/kg, 72 h, dose level Control, time 3 day
[2] = 0 mg/kg, 120 h, dose level Control, time 5 day
[3] = 250 mg/kg, 72 h, dose level High, time 3 day

With `C#C[C@]1(O)CC[C@H]2[C@@H]3CCc4cc(OC)ccc4[C@H]3CC[C@@]21C` [MESTRANOL] the “ABSOLUTE BASOPHIL” value [1] was 0 CELLS/uL, the “ABSOLUTE EOSINOPHIL” value [1] was 0 CELLS/uL and the “ABSOLUTE LYMPHOCYTE” value [1] was 12269.67 CELLS/uL. For the same molecule, the “ABSOLUTE MONOCYTE” value [1] was 160.33 CELLS/uL, the “ABSOLUTE SEGMENTED NEUTROPHIL” value [1] was 970 CELLS/uL and the BASOPHIL [1] was 0%. The EOSINOPHIL [1] was 0%, the “ERYTHROCYTE COUNT” value [1] was 5.76 x10E6/uL and the HEMATOCRIT [1] was 36.57%. The HEMOGLOBIN [1] was 14.22 G/DL, the “LEUKOCYTE COUNT” value [1] was 13.4 x10E3/uL and the LYMPHOCYTE [1] was 91.67%. For the same molecule, the “MEAN CORPUSCULAR HEMOGLOBIN” value [1] was 24.67 pg, the “MEAN CORPUSCULAR HEMOGLOBIN CONCENTRATION” value [1] was 38.85 G/DL and the “MEAN CORPUSCULAR VOLUME” value [1] was 63.52 fL. The MONOCYTE [1] was 1.17%, the NEUTROPHIL [1] was 7.17% and the “NUCLEATED RED BLOOD CELLS” value [1] was 0.33 /100WBC. For the same molecule, the “PLATELET COUNT” value [1] was 1250.83 x10E3/uL, the “ALANINE AMINOTRANSFERASE” value [1] was 49.17 u/L and the ALBUMIN [1] was 4.33 G/DL. The “ALKALINE PHOSPHATASE” value [1] was 378.5 u/L, the “ASPARTATE AMINOTRANSFERASE” value [1] was 82.17 u/L and the “BLOOD UREA NITROGEN” value [1] was 15 mg/dL. For the same molecule, the “CARBON DIOXIDE” value [1] was 34.33 mmol/L, the CHLORIDE [1] was 99.17 MEQ/L and the CHOLESTEROL [1] was 71.17 mg/dL. For the same molecule, the “CREATINE PHOSPHOKINASE” value [1] was 258.67 u/L, the CREATININE [1] was 0.18 mg/dL and the GLUCOSE [1] was 142.67 mg/dL. The “LACTATE DEHYDROGENASE” value [1] was 154.33 u/L, the LIPASE [1] was 9 u/L and the PHOSPHORUS [1] was 11.67 mg/dL. The POTASSIUM [1] was 7.13 MEQ/L, the SODIUM [1] was 142.22 MEQ/L and the “TOTAL BILIRUBIN” value [1] was 0.18 mg/dL. For the same molecule, the “TOTAL PROTEIN” value [1] was 5.77 G/DL, the “URIC ACID” value [1] was 1.55 mg/dL and the “ABSOLUTE BASOPHIL” value [2] was 0 CELLS/uL. For the same molecule, the “ABSOLUTE EOSINOPHIL” value [2] was 23.33 CELLS/uL, the “ABSOLUTE LYMPHOCYTE” value [2] was 14943.67 CELLS/uL and the “ABSOLUTE MONOCYTE” value [2] was 32 CELLS/uL. The “ABSOLUTE SEGMENTED NEUTROPHIL” value [2] was 1084.33 CELLS/uL, the BASOPHIL [2] was 0% and the EOSINOPHIL [2] was 0.17%. For the same molecule, the “ERYTHROCYTE COUNT” value [2] was 5.71 x10E6/uL, the HEMATOCRIT [2] was 35.28% and the HEMOGLOBIN [2] was 14.27 G/DL. For the same molecule, the “LEUKOCYTE COUNT” value [2] was 16.08 x10E3/uL, the LYMPHOCYTE [2] was 93% and the “MEAN CORPUSCULAR HEMOGLOBIN” value [2] was 25.02 pg. For the same molecule, the “MEAN CORPUSCULAR HEMOGLOBIN CONCENTRATION” value [2] was 40.43 G/DL, the “MEAN CORPUSCULAR VOLUME” value [2] was 61.82 fL and the MONOCYTE [2] was 0.17%. For the same molecule, the NEUTROPHIL [2] was 6.67%, the “NUCLEATED RED BLOOD CELLS” value [2] was 0.33 /100WBC and the “PLATELET COUNT” value [2] was 1274 x10E3/uL. For the same molecule, the “ALANINE AMINOTRANSFERASE” value [2] was 54.17 u/L, the ALBUMIN [2] was 4.22 G/DL and the “ALKALINE PHOSPHATASE” value [2] was 373.17 u/L. The “ASPARTATE AMINOTRANSFERASE” value [2] was 81.83 u/L, the “BLOOD UREA NITROGEN” value [2] was 16.67 mg/dL and the “CARBON DIOXIDE” value [2] was 30.33 mmol/L. For the same molecule, the CHLORIDE [2] was 99 MEQ/L, the CHOLESTEROL [2] was 71 mg/dL and the “CREATINE PHOSPHOKINASE” value [2] was 273.5 u/L. The CREATININE [2] was 0.22 mg/dL, the GLUCOSE [2] was 141.83 mg/dL and the “LACTATE DEHYDROGENASE” value [2] was 153.67 u/L. It also gave an LIPASE [2] of 10.33 u/L, a PHOSPHORUS [2] of 11.38 mg/dL and a POTASSIUM [2] of 7.08 MEQ/L. For the same molecule, the SODIUM [2] was 142.75 MEQ/L, the “TOTAL BILIRUBIN” value [2] was 0.18 mg/dL and the “TOTAL PROTEIN” value [2] was 6.1 G/DL. The “URIC ACID” value [2] was 1.67 mg/dL, the “ABSOLUTE BASOPHIL” value [3] was 0 CELLS/uL and the “ABSOLUTE EOSINOPHIL” value [3] was 55.33 CELLS/uL. The “ABSOLUTE LYMPHOCYTE” value [3] was 13434.33 CELLS/uL, the “ABSOLUTE MONOCYTE” value [3] was 105 CELLS/uL and the “ABSOLUTE SEGMENTED NEUTROPHIL” value [3] was 1338.67 CELLS/uL. The BASOPHIL [3] was 0%, the EOSINOPHIL [3] was 0.33% and the “ERYTHROCYTE COUNT” value [3] was 5.62 x10E6/uL. For the same molecule, the HEMATOCRIT [3] was 34.97%, the HEMOGLOBIN [3] was 13.77 G/DL and the “LEUKOCYTE COUNT” value [3] was 14.93 x10E3/uL. The LYMPHOCYTE [3] was 89.67%, the “MEAN CORPUSCULAR HEMOGLOBIN” value [3] was 24.5 pg and the “MEAN CORPUSCULAR HEMOGLOBIN CONCENTRATION” value [3] was 39.37 G/DL. The “MEAN CORPUSCULAR VOLUME” value [3] was 62.23 fL, the MONOCYTE [3] was 0.67% and the NEUTROPHIL [3] was 9.33%. For the same molecule, the “NUCLEATED RED BLOOD CELLS” value [3] was 0 /100WBC, the “PLATELET COUNT” value [3] was 1230 x10E3/uL and the “ALANINE AMINOTRANSFERASE” value [3] was 46.67 u/L. The ALBUMIN [3] was 4.03 G/DL, the “ALKALINE PHOSPHATASE” value [3] was 693.33 u/L and the “ASPARTATE AMINOTRANSFERASE” value [3] was 67.67 u/L. For the same molecule, the “BLOOD UREA NITROGEN” value [3] was 10.33 mg/dL, the “CARBON DIOXIDE” value [3] was 32 mmol/L and the CHLORIDE [3] was 102.67 MEQ/L. The CHOLESTEROL [3] was 11.33 mg/dL, the “CREATINE PHOSPHOKINASE” value [3] was 168.67 u/L and the CREATININE [3] was 0.16 mg/dL. The GLUCOSE [3] was 157 mg/dL, the “LACTATE DEHYDROGENASE” value [3] was 250.33 u/L and the LIPASE [3] was 7.33 u/L. The PHOSPHORUS [3] was 11.57 mg/dL, the POTASSIUM [3] was 6.36 MEQ/L and the SODIUM [3] was 145.73 MEQ/L. The “TOTAL BILIRUBIN” value [3] was 0.23 mg/dL and the “TOTAL PROTEIN” value [3] was 5.73 G/DL.
